The target of one assay is T1, PARP-1 CAT domain WT (Homo sapiens, UniProt P09874).
T1 construct: The PARP-1 CAT WT (residues 661–1014) was cloned in pET28 vector; made in house; host or cells: E. coli
The assay is described as follows: Differential scanning fluorimetry (DSF), PARP-1 CAT WT. The assay is classed as binding. The following applies: for TM: Figure 1e, CAT WT 5 μM, TM without compound 51.58, in °C (unit assumed). The protocol:
(§1) DSF experiments were performed as described, [13] using 5 µM protein, 2.5 µM DNA when indicated and various concentrations of compound (BAD, carba-NAD^+, benzamide, and ADP-ribose) as indicated in Fig. 1 and Fig. 3. Experiments were performed on a Roche LightCycler 480 RT-PCR. Reactions including DNA were performed with a 26- or 28-base pair (bp) unphosphorylated oligonucleotide for PARP-1, a 28-bp 5´-phosphorylated (5´P) oligonucleotide for PARP-2, and a 47-bp oligonucleotide including a central 5´P nick for PARP-3^13 in the following buffer: 25 mM Hepes pH 8.0, 150 mM NaCl, 1 mM EDTA, and 0.1 mM TCEP. Reactions with PARP-3 were conducted at lower ionic strength to allow binding to DNA as described (25 mM Hepes pH 8.0, 50 mM NaCl, 1 mM EDTA and 0.1 mM TCEP)[13]. ΔTM values were calculated by subtracting the TM determined for the protein in the absence of compound from the TM determined in the presence of compound. Experiments were performed in triplicate and a Boltzmann sigmoid was fit to the data to determine the TM values (KaleidaGraph).
A general note: In DSF a fluorescence change marks the thermal transition of the protein.

The target of a further assay is T2, PARP-1 CAT ΔHD (Homo sapiens, UniProt P09874).
T2 construct: a pET28 construct coding for PARP-1 residues 661-1011; made in house; host or cells: E. coli
The assay is described as follows: DSF, PARP-1 CAT ΔHD. The assay is classed as binding. The conditions noted are these: for TM: Figure 1e, CAT ΔHD 5 μM, TM without compound 41.26, in °C (unit assumed). The protocol: as §1

In another assay the target is T3, full-length PARP-1 (Homo sapiens, UniProt P09874).
T3 construct: Full-length PARP-1 WT (residues 1–1014) was cloned in pET28 vector; made in house; host or cells: E. coli
Nature of the assay: Colorimetric assay of full-length PARP-1 DNA-dependent activity. The conditions noted are these: 20 nM PARP-1, 40 nM DNA, 50 μM NAD+. The assay is classed as biochemical. Here is the method:
The colorimetric assay was performed as described, [28] using 20 nM of protein and 40 nM DNA (18-bp duplex). A mixture of NAD^+ and biotinylated NAD^+ (bio-NAD^+) was used at a 99:1 ratio and a final concentration of 50 µM. Reactions were allowed to proceed for 5 min before quenching. Three independent experiments were performed.

Where [1] appears, read: 5 μM protein, various amounts of compound.

T1 sequence (P09874 661-1014): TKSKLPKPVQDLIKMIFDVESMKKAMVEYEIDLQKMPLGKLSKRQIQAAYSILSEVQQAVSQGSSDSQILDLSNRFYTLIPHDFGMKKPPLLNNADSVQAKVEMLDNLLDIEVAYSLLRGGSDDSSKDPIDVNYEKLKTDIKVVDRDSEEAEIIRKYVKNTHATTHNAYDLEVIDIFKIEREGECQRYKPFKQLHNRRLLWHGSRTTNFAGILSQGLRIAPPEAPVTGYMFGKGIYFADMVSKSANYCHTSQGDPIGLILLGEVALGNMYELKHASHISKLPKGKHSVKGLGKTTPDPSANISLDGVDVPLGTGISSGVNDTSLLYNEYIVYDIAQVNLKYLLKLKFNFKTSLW
T2 sequence (P09874 with tags, fused parts or gaps): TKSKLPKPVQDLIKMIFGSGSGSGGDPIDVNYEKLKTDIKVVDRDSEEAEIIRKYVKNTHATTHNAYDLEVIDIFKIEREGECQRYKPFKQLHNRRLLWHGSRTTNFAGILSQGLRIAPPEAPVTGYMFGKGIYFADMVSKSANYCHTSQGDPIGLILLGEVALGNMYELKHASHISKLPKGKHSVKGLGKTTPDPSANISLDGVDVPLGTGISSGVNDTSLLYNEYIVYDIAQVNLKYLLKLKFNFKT
T3 sequence (P09874 whole entry, the tested form may be a part): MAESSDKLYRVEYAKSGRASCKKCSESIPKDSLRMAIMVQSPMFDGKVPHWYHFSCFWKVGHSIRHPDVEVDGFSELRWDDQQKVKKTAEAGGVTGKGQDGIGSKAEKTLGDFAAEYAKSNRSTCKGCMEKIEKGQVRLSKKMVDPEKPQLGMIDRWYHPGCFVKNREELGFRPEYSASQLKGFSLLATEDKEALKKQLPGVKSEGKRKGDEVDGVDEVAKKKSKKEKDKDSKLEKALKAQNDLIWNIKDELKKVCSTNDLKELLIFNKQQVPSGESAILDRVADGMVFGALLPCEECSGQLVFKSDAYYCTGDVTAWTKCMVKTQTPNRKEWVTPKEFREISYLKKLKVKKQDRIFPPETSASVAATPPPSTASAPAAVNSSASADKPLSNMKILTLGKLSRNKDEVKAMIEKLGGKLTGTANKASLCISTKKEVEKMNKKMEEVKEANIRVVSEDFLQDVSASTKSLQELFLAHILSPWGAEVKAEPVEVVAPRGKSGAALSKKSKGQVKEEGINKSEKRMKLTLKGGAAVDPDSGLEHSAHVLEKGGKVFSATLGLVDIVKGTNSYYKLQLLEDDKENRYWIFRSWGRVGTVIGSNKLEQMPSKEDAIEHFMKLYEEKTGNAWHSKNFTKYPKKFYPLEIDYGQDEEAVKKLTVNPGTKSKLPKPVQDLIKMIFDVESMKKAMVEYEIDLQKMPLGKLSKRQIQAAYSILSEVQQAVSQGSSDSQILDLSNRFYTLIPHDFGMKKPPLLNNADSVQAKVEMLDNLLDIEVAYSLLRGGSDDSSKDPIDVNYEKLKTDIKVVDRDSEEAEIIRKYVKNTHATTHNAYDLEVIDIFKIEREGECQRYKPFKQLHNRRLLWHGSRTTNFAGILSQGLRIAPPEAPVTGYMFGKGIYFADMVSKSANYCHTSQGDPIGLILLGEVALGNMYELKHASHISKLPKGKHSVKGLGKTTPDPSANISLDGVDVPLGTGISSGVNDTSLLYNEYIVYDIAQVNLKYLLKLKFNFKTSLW

For the molecule `Nc1ncnc2c1ncn2C1OC(COP(=O)(O)OP(=O)(O)OCC2OC(O)C(O)C2O)C(O)C1O` (centres unmarked) [ADP-ribose], the “change of apparent TM of PARP-1 CAT WT (evidence of binding)” value at PARP-1 CAT domain WT (setting [1]) was “no evidence of binding”. Also, the TM amounted to 51.52 on PARP-1 CAT domain WT (compound 25 µM); 51.61 on PARP-1 CAT domain WT (compound 150 µM); 51.56 on PARP-1 CAT domain WT (compound 750 µM); 51.53 at PARP-1 CAT domain WT (compound 1500 µM); 41.46 at PARP-1 CAT ΔHD (compound 25 µM); 41.57 on PARP-1 CAT ΔHD (compound 150 µM). For the same molecule, the figures for the TM at PARP-1 CAT ΔHD (compound 750 µM) and on PARP-1 CAT ΔHD (compound 1500 µM) were 41.43 and 41.68, respectively. Besides, the “change of TM of CAT ΔHD (evidence of binding)” value on PARP-1 CAT ΔHD (setting [1]) is “no evidence of binding”. Moreover, at full-length PARP-1, the “inhibition of DNA damage-dependent activity of full-length PARP-1” value is “does not inhibit the reaction”.
